“Also recorded” adds a separate entry of the source. Structures can show the parent of a compound that is named as a salt. Where two headings read alike, the source gives them in different places.
Assays:
[1] = test system: skin; test: Skin appearance / irritation after transdermal patch; assay type: in vivo, rat
Description: (§1) It was hypothesized that the combined application of amitriptyline and capsaicin as a transdermal patch will produce prolonged cutaneous analgesia compared to amitriptyline alone. Male Sprague-Dawley rats (weights 250-300 g) were assigned to five treatment groups (n=6-8). Transdermal patches containing amitriptyline with different concentrations of capsaicin were applied to the rats' shaved backs: 2.5% amitriptyline alone (control group) and in combinations with 0.05%, 0.15%, 1, and 8% capsaicin for 3 hours. Behavioral testing for cutaneous nociception was conducted before and after patch removal, using the cutaneous trunci muscle reflex (CTMR). In addition, skin appearance was assessed to determine irritation by the formulation.

[2] = test system: sciatic nerve; test: Rat sciatic nerve block: nociception (nocifensive withdrawal reflex and vocalization to skin pinch); assay type: in vivo; conditions: for dose-response of block, in words: 0.0625, 0.125 and 0.25%, injection followed by capsaicin; for kind of blockade (nociceptive vs motor), in words: local anesthetic with injection of capsaicin 0.05% 10 minutes later; for effect of vehicle on block, in words: vehicle (10% ethanol, 10% Tween 80, 80% saline) injected 10 min after the drug
[3] = test system: cutaneous trunci muscle reflex; assay type: in vivo, rat
Description: as §1

[4] = test system: sciatic nerve; test: Rat sciatic nerve block: motor function (extensor postural thrust); assay type: in vivo
Description: The rats were assigned to treatments via block randomization with a block size of 8. All rats were anesthetized by inhalation of 1-2% of sevoflurane (Abbott Laboratory, North Chicago, Ill.) until no withdrawal to pinch of the leg occurred (by forceps). […] All drugs were given alone or co-administered with capsaicin at 0.05%/1.6 mM. Co-administration of capsaicin was performed either 10 minutes after the first drug or simultaneously (e.g., mixed with the local anesthetic). The vehicle control group received local anesthetic followed by injection of vehicle 10 minutes later. Capsaicin was also injected alone as was normal saline. Each drug was injected was injected in a volume of 0.2 mL. The experimenter was blinded to the drug used, but was not blinded to the administration of a second drug 10 minutes later which was either capsaicin or vehicle alone.
The effects of local anesthetics and capsaicin on motor function and nociception were evaluated. Rats were examined before injection for baseline functions, and at 10, 20, 30, 60, and 90 minutes and 2, 3, 6, 12, 24, and 36 hours after drug administration. Motor function was assayed by holding the rat upright with the control hind limb extended so that the distal metatarsus and toes of the target leg supported the animal's weight; the extensor postural thrust was recorded as the force (in grams) applied by each of the two hind limbs to a digital platform balance (Ohaus Lopro; Fisher Scientific, Florham Park, N.J.). The reduction in this force, representing reduced extensor-muscle contraction caused by motor block, was calculated as a percentage of the control force (pre-injection control value=145 to 165 g). The percent reduction in force was assigned a ‘range’ score: 0=no block (or baseline); 1=minimal block, force between the pre-injection control value of 100% and 50%; 2=moderate block, force between 50% of the pre-injection control value and 20 g (˜20 g represented the approximate weight of the flaccid limb); 3=complete block, force 20 g or less.
For both nociceptive and motor assessment, the examination was repeated three times at each time point and reported as an average of the three exams.

[5] = test system: sciatic nerve; conditions: followed by capsaicin; cited from earlier work
[6] = 0.0625% drug + 0.05% capsaicin (10 min apart)
[7] = 0.0625% drug alone, 0.2 mL at sciatic notch
[8] = 0.125% drug + 0.05% capsaicin (10 min apart)
[9] = 0.125% drug + 0.05% capsaicin (mixed)
[10] = 0.125% drug + vehicle (10 min apart)
[11] = 0.25% drug + 0.05% capsaicin (10 min apart)
[12] = 2.5% amitriptyline patch alone, applied 3 hours
[13] = 0.25% drug + 0.05% capsaicin (mixed)
[14] = 0.25% drug + vehicle (10 min apart)
[15] = 2% drug + 0.05% capsaicin (10 min apart)
[16] = 2% drug + 0.05% capsaicin (mixed)
[17] = 2% drug + vehicle (10 min apart)
[18] = 0.125% solution administered alone

Compound | Complete recovery time, Nociception, Mean [2, 6] [h] | Complete recovery time, Nociception, Mean [2, 7] [h] | dose-response of block, in words [2] | Complete recovery time, Nociception, Mean [2, 8] [h] | Complete recovery time, Nociception, Mean [2, 9] [h] | Complete recovery time, Nociception, Mean [2, 10] [h] | Complete recovery time, Nociception, Mean ([2]; 0.125% drug alone) [h] | Complete recovery time, Nociception, Mean [2, 11] [h] | Complete recovery time, Nociception, Mean ([2]; 0.25% drug alone) [h] | kind of blockade (nociceptive vs motor), in words ([2]; hydrochloride) | Complete recovery time, Motor, Mean [4, 6] [h] | Complete recovery time, Motor, Mean [4, 7] [h] | Complete recovery time, Motor, Mean [4, 8] [h] | Complete recovery time, Motor, Mean [4, 9] [h] | Complete recovery time, Motor, Mean [4, 10] [h] | Complete recovery time, Motor, Mean ([4]; 0.125% drug alone) [h] | Complete recovery time, Motor, Mean [4, 11] [h] | Complete recovery time, Motor, Mean ([4]; 0.25% drug alone) [h] | kind of blockade (nociceptive vs motor), in words [2] | effect of vehicle on block, in words [2] | also measured
CN(C)CCC=C1c2ccccc2CCc2ccccc21 [Amitriptyline, amitriptyline hydrochloride] | 2.88 | 0.25 | dose-dependent and predominantly nociceptive block | 17.25 | 2.69 | 2.13 | 4.56 | 33.37 | 11.25 | predominantly nociceptive-specific blockade; also recorded: large differential block | 1.38 | 0.44 | 3.25 | 0.44 | 2.62 | 3.44 | 2.31 | 9.13 |  |  | skin effects, in words ([1]; 2.5% amitriptyline patch alone): causes toxic effects in skin; skin effects, in words ([1]; amitriptyline 2.5% with capsaicin 8% patch): no adverse skin reactions; complete block to pinprick (duration) [3, 12]: 4.5 h; time to full recovery [3, 12]: 96 h; complete block to pinprick (duration) ([3]; 3 h): 6 to 9 h; time to full recovery ([3]; 3 h): 216 h; effect on motor block, in words ([4]; 0.25%, followed by capsaicin): motor block decreased; effect on motor block, in words ([4]; capsaicin given simultaneously with the local anesthetic, hydrochloride): significantly decreased the motor blockade; also recorded: decreased the absolute duration of motor block
CCCCN1CCCCC1C(=O)Nc1c(C)cccc1C (stereo not shown) [Bupivacaine, bupivacaine hydrochloride] |  |  |  |  |  |  |  | 23.14 | 2.50 |  |  |  |  |  |  |  | 2.31 | 2.31 | predominantly nociceptive-specific blockade | intensification of both motor and nociceptive block | Complete recovery time, Nociception, Mean [2, 13]: 1.63 h; Complete recovery time, Nociception, Mean [2, 14]: 4.75 h; nociceptive vs motor blockade, in words ([2]; 0.25%, followed by capsaicin or vehicle 10 minutes later): significantly increased the nociceptive blockade over motor blockade; Complete recovery time, Motor, Mean [4, 13]: 1.56 h; Complete recovery time, Motor, Mean [4, 14]: 2.87 h; effect on motor block, in words ([4]; capsaicin given simultaneously with the local anesthetic): decreased the absolute duration of motor block
CCN(CC)CC(=O)Nc1c(C)cccc1C [Lidocaine, lidocaine hydrochloride] |  |  |  |  |  |  |  |  |  | smallest differential block among all drug combinations |  |  |  |  |  |  |  |  |  | intensification of both motor and nociceptive block | Complete recovery time, Nociception, Mean [2, 15]: 7.62 h; Complete recovery time, Nociception, Mean [2, 16]: 3.00 h; Complete recovery time, Nociception, Mean [2, 17]: 2.12 h; Complete recovery time, Nociception, Mean ([2]; 2% drug alone): 1.25 h; motor and nociceptive block, in words ([2]; 2% given alone): complete but relatively short-lasting motor and nociceptive block; kind of blockade (nociceptive vs motor), in words ([2]; listed as lidocaine, hydrochloride): predominantly nociceptive-specific blockade; Complete recovery time, Motor, Mean [4, 15]: 1.69 h; Complete recovery time, Motor, Mean [4, 16]: 1.50 h; Complete recovery time, Motor, Mean [4, 17]: 2.00 h; Complete recovery time, Motor, Mean ([4]; 2% drug alone): 1.13 h
C[N+](C)(C)CCC=C1c2ccccc2CCc2ccccc21 [N-Methyl Amitriptyline, N-methyl amitriptyline] | 0.13 | 0.00 | dose-dependent and predominantly nociceptive block | 11.63 | 10.87 | 0.81 | 0.67 | 33.00 | 3.63 |  | 0.06 | 0.12 | 0.04 | 0.12 | 0.38 | 0.31 | 1.81 | 1.44 | predominantly nociceptive-specific blockade |  | kind of blockade, in words ([2]; 0.125% + capsaicin 0.05%, 10 minutes after or injected simultaneously): very prolonged sensory-selective block; duration of nociceptive blockade [2, 18]: < 1 h; duration of motor blockade [4, 18]: < 1 h
CC[N+](CC)(CC)CC(=O)Nc1c(C)cccc1C [QX-314] |  |  |  |  |  |  |  |  |  |  |  |  |  |  |  |  |  |  |  |  | kind of sciatic nerve block, in words [5]: nociceptor-selective sciatic nerve block
COc1cc(CNC(=O)CCCCC=CC(C)C)ccc1O [capsaicin, 8-methyl-N-vanillyl-6-nonenamide] |  |  |  |  |  |  |  |  |  |  |  |  |  |  |  |  |  |  |  |  | motor and nociceptive block, in words ([2]; injected alone, 0.05%, 0.2 mL): no detectable block

Reference: patent US20100190860A1, “METHODS FOR SELECTIVELY ENHANCING ANTINOCICEPTIVE POTENCY OF LOCAL ANESTHETICS” (The Brigham and Women's Hospital, Inc., priority 2009, published 2010)
